Data set [1] addresses T1, TRAF2 and NCK-interacting protein kinase (Homo sapiens, UniProt Q9UKE5).
Data set [2] deals with LX-2. Put plainly: cells. Conditions: Homo sapiens.
In data set [3] the test system is LX-2. The data set can be described thus: cells. The conditions noted are these: Homo sapiens. The source holds these as a separate data set.
A short description of data set [4]: in vitro. Conditions: human, lx-2.
Data set [5] can be described thus: Metabolic stability in human liver microsomes assessed as intrinsic clearance preincubated for 60 mins followed by NADPH addition and measured after 5 to 60 mins by LC-MS/MS analysis. In kind it is ADME, Microsome. Conditions: time 65-120 min, read-out: CLH. (Liver microsomes are a subcellular fraction often used to study metabolism.)
A short description of data set [6]: Metabolic stability in mouse liver microsomes assessed as intrinsic clearance preincubated for 60 mins followed by NADPH addition and measured after 5 to 60 mins by LC-MS/MS analysis. Type of data set: ADME, Microsome. The conditions noted are these: time 65-120 min, read-out: CLH.
A short description of data set [7]: physchem. Conditions: buffer, pH 7.4.
Data set [8] can be described thus: Apparent permeability in human Caco-2 cells. In kind it is ADME, cell-based. On the technique in general: Passage across Caco-2 layers is used to estimate intestinal permeability.
For data set [9], the target named is T2, Muscarinic acetylcholine receptor M1 (Homo sapiens, UniProt P11229).
T2 sequence (P11229 whole entry): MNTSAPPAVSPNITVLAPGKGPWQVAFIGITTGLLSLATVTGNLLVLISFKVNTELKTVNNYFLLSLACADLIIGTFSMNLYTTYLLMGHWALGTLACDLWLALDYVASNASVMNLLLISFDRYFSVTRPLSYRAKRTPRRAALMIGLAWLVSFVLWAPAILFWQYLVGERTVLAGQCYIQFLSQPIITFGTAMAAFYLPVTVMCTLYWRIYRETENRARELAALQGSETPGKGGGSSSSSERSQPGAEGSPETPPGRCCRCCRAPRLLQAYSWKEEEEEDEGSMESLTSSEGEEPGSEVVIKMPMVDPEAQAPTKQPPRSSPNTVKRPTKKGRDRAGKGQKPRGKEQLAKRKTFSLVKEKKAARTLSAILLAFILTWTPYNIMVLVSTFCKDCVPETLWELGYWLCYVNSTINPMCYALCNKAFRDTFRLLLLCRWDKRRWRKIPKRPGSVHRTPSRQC
Put plainly: Inhibition of human CHRM1 by Eurofins DiscoverX method.

The test system of data set [10] is Mus musculus. Put plainly: Anti-hepatic fibrosis activity in CCL4-induced male C57BL6/J mouse hepatic fibrosis model assessed as change in body weight at 3 mg/kg, po meausred after 2 weeks (reference value: -1.8%). In kind it is functional.
The test system of data set [11] is Mus musculus. The data set can be described thus: Anti-hepatic fibrosis activity in CCL4-induced male C57BL6/J mouse hepatic fibrosis model assessed as change in body weight at 10 mg/kg, po meausred after 2 weeks (reference value: -1.8%). Type of data set: functional.
Data set [12] in a line: Inhibition of fibronectin-1 protein expression in human Primary bronchial epithelial cell. In kind it is functional, cell-based.
Data set [13] deals with T1, TRAF2 and NCK-interacting protein kinase. This is another data set of the same source.

SMILES strings stand for the structures. Values after ≈ are worked out from the molar mass of the structure shown.

T1 sequence (Q9UKE5 whole entry): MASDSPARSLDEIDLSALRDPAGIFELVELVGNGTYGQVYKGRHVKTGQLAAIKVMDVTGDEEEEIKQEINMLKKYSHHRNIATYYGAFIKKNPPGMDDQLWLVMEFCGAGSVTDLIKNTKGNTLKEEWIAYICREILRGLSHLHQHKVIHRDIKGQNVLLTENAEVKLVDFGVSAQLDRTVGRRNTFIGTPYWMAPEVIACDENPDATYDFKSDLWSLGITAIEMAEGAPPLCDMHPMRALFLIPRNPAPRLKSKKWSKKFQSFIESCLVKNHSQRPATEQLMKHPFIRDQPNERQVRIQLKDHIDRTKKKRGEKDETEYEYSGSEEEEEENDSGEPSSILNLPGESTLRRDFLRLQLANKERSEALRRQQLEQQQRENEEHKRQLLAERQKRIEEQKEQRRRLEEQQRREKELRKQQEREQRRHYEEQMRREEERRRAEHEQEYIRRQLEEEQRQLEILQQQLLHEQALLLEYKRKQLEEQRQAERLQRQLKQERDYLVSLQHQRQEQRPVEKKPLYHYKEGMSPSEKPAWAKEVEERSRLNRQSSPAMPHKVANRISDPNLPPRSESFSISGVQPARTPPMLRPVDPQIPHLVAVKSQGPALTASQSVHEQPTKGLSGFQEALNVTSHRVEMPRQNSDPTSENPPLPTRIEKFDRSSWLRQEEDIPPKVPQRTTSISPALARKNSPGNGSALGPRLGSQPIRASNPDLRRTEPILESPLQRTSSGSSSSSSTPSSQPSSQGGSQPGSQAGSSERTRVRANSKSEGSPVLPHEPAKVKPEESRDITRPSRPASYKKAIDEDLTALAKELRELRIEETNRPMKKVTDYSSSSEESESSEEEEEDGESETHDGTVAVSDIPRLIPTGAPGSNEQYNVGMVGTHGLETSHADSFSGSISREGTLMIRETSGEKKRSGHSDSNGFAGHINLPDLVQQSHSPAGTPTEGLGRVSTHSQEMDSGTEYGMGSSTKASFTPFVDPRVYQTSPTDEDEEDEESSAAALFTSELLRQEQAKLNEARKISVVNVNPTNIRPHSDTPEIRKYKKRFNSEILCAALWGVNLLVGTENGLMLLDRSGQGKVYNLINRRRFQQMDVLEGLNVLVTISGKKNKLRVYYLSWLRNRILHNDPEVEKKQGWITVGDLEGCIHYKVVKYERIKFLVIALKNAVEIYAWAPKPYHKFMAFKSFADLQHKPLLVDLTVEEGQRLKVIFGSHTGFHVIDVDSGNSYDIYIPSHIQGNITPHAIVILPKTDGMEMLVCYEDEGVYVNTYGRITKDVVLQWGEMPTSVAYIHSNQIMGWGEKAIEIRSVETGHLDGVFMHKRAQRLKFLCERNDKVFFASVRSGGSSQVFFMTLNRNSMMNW

As usually defined, the IC50 is the midpoint of a concentration-inhibition curve. For the compound `CC(C)n1cnc(-c2ccc(F)cc2)c1-c1nc(C(=O)Nc2ccc(N(CCO)CCO)cc2)c[nH]1`, the results for the IC50 in data set [1], in data set [2] and in data set [3] were 79.1 nM, 839 nM and 904 nM, respectively. In [4], this compound displayed an IC50 at 72 h of over 100000 nM.

As to `CC(C)n1cnc(-c2ccc(F)cc2)c1-c1nc(C(=O)Nc2ccc(N3CC4CCC(C3)N4C)cc2)c[nH]1`, the IC50 in data set [1] amounted to 4 nM; in data set [2], 42 nM; in data set [3] it was 77 nM. For the same compound, the IC50 at 72 h in data set [4] is 22600 nM.

Regarding `CC1CN(c2ccc(NC(=O)c3c[nH]c(-c4c(-c5ccc(F)cc5)ncn4C(C)C)n3)cc2)CC(C)N1C` (stereo not given), the values for the IC50 in [1], in [2] and in data set [3] were 18 nM, 71 nM and 71 nM, respectively. The same compound yielded an IC50 at 72 h in data set [4] of 12300 nM.

Usually solubility (kinetic) stands for solubility judged after dilution from a stock solution rather than from solid. Turning to `CC(C)n1cnc(-c2ccc(F)cc2)c1-c1cccc(C(=O)Nc2ccc(N3CCN(C)CC3)cc2)n1`, the microsomal CLint in [5] worked out at 119 µL/min/mg; in [6], 122 µL/min/mg. The compound also came in with an IC50 in data set [1] of 5.9 nM. The same compound gave a solubility (kinetic) at 24 h in data set [7] of 105 µM (≈ 52.4 µg/mL).

A word on the Papp: it is the rate of passage across a membrane or cell layer, normalised by area and donor concentration. As to `CC(C)n1cnc(-c2ccc(F)cc2)c1-c1nc(C(=O)Nc2ccc(C(=O)O)cc2)c[nH]1`, the Papp in [8] amounted to 0.07 ×10⁻⁶ cm/s. Besides, the results for the IC50 in data set [1], in data set [2] and in data set [3] were 149 nM, over 10000 nM and over 10000 nM, respectively. The compound further yielded an IC50 at 72 h in data set [4] of over 100000 nM.

For the compound `CC(C)n1cnc(-c2ccc(F)cc2)c1-c1ccc(C(=O)Nc2ccc(N3CCN(C)CC3)cc2)o1`, the microsomal CLint in data set [5] and in data set [6] was over 150 µL/min/mg throughout. The same compound came in with an IC50 in data set [1] of 10.5 nM. This compound displayed a kinetic solubility at 24 h in data set [7] of 40 µM (≈ 19.5 µg/mL).

On to `CC(C)n1cnc(-c2ccc(F)cc2)c1-c1ccc(C(=O)Nc2ccc(CCO)cc2)o1`, for which the microsomal CLint in [5] and in data set [6] was over 150 µL/min/mg in each case. Further, in data set [1], the IC50 worked out at 40.2 nM. For the same compound, in data set [7], the kinetic solubility at 24 h is under 2 µM.

As for `CC(C)n1cnc(-c2ccc(F)cc2)c1-c1nc(C(=O)Nc2ccc(N3CCN(CC(F)(F)F)CC3)cc2)c[nH]1`, the IC50 in [1] worked out at 42 nM; in data set [2] it was 519 nM; in data set [3], 125 nM. This compound also gave an IC50 at 72 h in data set [4] of over 100000 nM.

Turning to `CC(C)n1cnc(-c2ccc(F)cc2)c1-c1nc(C(=O)Nc2ccc(CCO)cc2)c[nH]1`, the IC50 in data set [1] worked out at 9.5 nM; in data set [2], 306 nM; in [3], 264 nM. Moreover, the IC50 at 72 h in data set [4] was over 100000 nM.

On to `CC(C)n1cnc(-c2ccc(F)cc2)c1-c1nc(C(=O)Nc2ccc(N3CCN(C)C(=O)C3)cc2)c[nH]1`, for which the IC50 was determined as 47 nM in data set [1], 898 nM in data set [2] and 713 nM in [3]. In data set [4], this compound came in with an IC50 at 72 h of over 100000 nM.

Take `CC(C)n1cnc(-c2ccc(F)cc2)c1-c1nc(C(=O)Nc2ccc(N3CCN(CCO)CC3)cc2)c[nH]1`: the IC50 in data set [1] amounted to 21.1 nM; in data set [2], 123 nM; in data set [3], 162 nM. In addition, the IC50 at 72 h in [4] was over 100000 nM.

As for `CC(C)n1cnc(-c2ccc(F)cc2)c1-c1nc(C(=O)Nc2ccc(CCCCC(=O)O)cc2)c[nH]1`, the Papp in [8] amounted to 0.07 ×10⁻⁶ cm/s. For the same compound, the half-maximal inhibitory concentration (IC50) was 51 nM in data set [1], over 10000 nM in data set [2] and over 10000 nM in data set [3]. For the same compound, the IC50 at 72 h in [4] is over 100000 nM.

With `CC(C)n1cnc(-c2ccc(F)cc2)c1-c1nc(C(=O)Nc2ccc(N3CCN(C)CC3)cc2)c[nH]1`, the 50% inhibitory concentration (IC50) is 8400 nM in [9] and 250 nM in data set [12]. Besides, the figures for the Activity in data set [10] and in [11] were -0.671% and 6.065%, respectively.

On to `CC(C)n1cnc(-c2ccc(F)c(F)c2)c1-c1nc(C(=O)Nc2ccc(N3CCN(C)CC3)cc2)c[nH]1`, for which, in [1], half-maximal inhibition (IC50) required 51 nM.

Regarding `CC(=O)N1CCN(c2ccc(NC(=O)c3c[nH]c(-c4c(-c5ccc(F)cc5)ncn4C(C)C)n3)cc2)CC1`, the values for the IC50 in data set [1], in [2] and in data set [3] were 6 nM, 144 nM and 572 nM, respectively. This compound also yielded an IC50 at 72 h in data set [4] of over 100000 nM.

Consider `CC(C)n1cnc(-c2ccc(F)cc2)c1-c1cccc(C(=O)Nc2ccc(CCO)cc2)n1`, for which the microsomal CLint in data set [5] was determined as 161 µL/min/mg; in [6], 124 µL/min/mg. The compound further returned an IC50 in data set [1] of 5.7 nM. In data set [7], the kinetic solubility at 24 h is under 2 µM.

Turning to `CC(C)n1cnc(-c2ccc(F)cc2)c1-c1nc(C(=O)Nc2ccc(N3CCN(S(N)(=O)=O)CC3)cc2)c[nH]1`, inhibition in data set [1] was half-maximal at 10.6 nM (IC50). Further, the kinetic solubility at 24 h in [7] is under 2 µM.

As for `CC(C)n1cnc(-c2ccc(F)cc2)c1-c1nc(C(=O)Nc2ccc(N3CCN(C(N)=O)CC3)cc2)c[nH]1`, in data set [1], it took 199 nM to reach half-maximal inhibition (IC50).

As for `CC(C)n1cnc(-c2ccc(F)cc2)c1-c1nc(C(=O)Nc2ccc(CCC(=O)O)cc2)c[nH]1`, the Papp in data set [8] is 0.07 ×10⁻⁶ cm/s. The IC50 in data set [1] is 46.3 nM; in data set [2], over 10000 nM; in [3] it was over 10000 nM. Besides, the IC50 at 72 h in [4] is over 100000 nM.

Consider `CC(C)n1cnc(-c2ccc(F)cc2)c1-c1cccc(C(=O)Nc2ccc(N3CCN(CCO)CC3)cc2)n1`, for which the microsomal CLint in [5] is 141 µL/min/mg; in data set [6], 69.5 µL/min/mg. The compound further came in with an IC50 in [1] of 5.2 nM. Besides, the solubility (kinetic) at 24 h in data set [7] came to 5.3 µM (≈ 2.8 µg/mL).

Take `CC(C)n1cnc(-c2ccc(F)cc2)c1-c1nc(C(=O)Nc2ccc(N3CCNCC3)cc2)c[nH]1`: the IC50 in data set [1] stood at 11.1 nM; in data set [2], 81 nM; in data set [3], 65 nM. Moreover, the IC50 at 72 h in [4] amounted to 40500 nM.

For `CC(C)n1cnc(-c2ccc(F)cc2)c1-c1nc(C(=O)Nc2ccc(N3CC[N+](C)([O-])CC3)cc2)c[nH]1`, the IC50 in data set [1] was 34.3 nM; in data set [2] it was 115 nM; in data set [3] it was over 10000 nM. In [4], this compound had an IC50 at 72 h of over 100000 nM.

`CC(C)n1cnc(-c2ccc(F)cc2)c1-c1cccc(C(=O)Nc2ccc(CCC(=O)O)cc2)n1`: the microsomal CLint in [5] and in data set [6] was under 9.6 µL/min/mg throughout. Also, the IC50 in data set [1] turned out to be 5.7 nM. Also, the solubility (kinetic) at 24 h in data set [7] was under 2 µM.

`CC(C)n1cnc(-c2ccc(Cl)cc2)c1-c1nc(C(=O)Nc2ccc(N3CCN(C)CC3)cc2)c[nH]1` had an IC50 in [1] of 71.3 nM.

In turn, `CC(C)n1cnc(-c2ccc(C(F)(F)F)cc2)c1-c1nc(C(=O)Nc2ccc(N3CCN(C)CC3)cc2)c[nH]1` came in with an IC50 in data set [1] of over 10000 nM.

For the compound `Cn1ccc2cc(-c3ccc4c(c3)SCCN(Cc3ccc(F)cc3)C4=O)cnc21`, in [13], the IC50 is 26 nM.

The values above are taken from ChEMBL document CHEMBL6127114, “Discovery of Bis-imidazolecarboxamide Derivatives as Novel, Potent, and Selective TNIK Inhibitors for the Treatment of Idiopathic Pulmonary Fibrosis” (J Med Chem, 2024).
